Data reported in patent US8809536B2, “2,3-dihydrobenzo[1,4] dioxin-2-ylmethyl derivatives as alpha2C antagonists for use in the treatment of peripheric and central nervous system diseases” (Orion Corporation, priority 2007, dated 2014).

What was measured:
human alpha2C receptors = biological target: T1, human alpha2C receptors (Homo sapiens, UniProt P18825); assay: Determination of alpha2C antagonistic activity in vitro (intracellular calcium, FLIPR Calcium 3 Assay, FLEXstation); assay type: cell-based; settings: CHO cells stably transfected with human alpha2C receptor and Gα16; stimulated with 100 nM adrenaline or 200 nM noradrenaline
T1 construct: host or cells: CHO cells, cotransfected with expression vector pCEP-Galpha16
T1 sequence (P18825 1-462): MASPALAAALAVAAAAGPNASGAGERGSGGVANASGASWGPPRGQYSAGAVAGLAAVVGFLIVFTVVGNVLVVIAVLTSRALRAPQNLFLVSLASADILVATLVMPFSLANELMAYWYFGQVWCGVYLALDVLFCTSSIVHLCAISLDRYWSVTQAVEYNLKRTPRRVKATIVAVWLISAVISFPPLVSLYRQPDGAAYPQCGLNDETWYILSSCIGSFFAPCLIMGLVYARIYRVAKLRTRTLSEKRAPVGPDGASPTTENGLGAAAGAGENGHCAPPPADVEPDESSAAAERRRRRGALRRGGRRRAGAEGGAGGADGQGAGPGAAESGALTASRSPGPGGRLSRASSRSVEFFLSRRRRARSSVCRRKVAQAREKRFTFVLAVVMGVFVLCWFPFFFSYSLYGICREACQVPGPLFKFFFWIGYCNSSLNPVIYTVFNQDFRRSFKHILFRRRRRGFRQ
Method: (§1) Chinese hamster ovary (CHO) cells stably transfected with human alpha2A and alpha2C or rodent alpha2D receptors (University of Turku, Finland) were cotransfected with the expression vector pCEP-Gα16 (Molecular Devices, CA, USA) and CHO cells stably transfected with human adrenergic alpha2B receptors and mitochondrially targeted aequorin (Euroscreen, Belgium) were used in this experiment. The cells were maintained at 37° C. in a 5% CO2/95% air atmosphere. The cells were cultured in HAM F-12 medium supplemented with 10% FCS, 25 mM HEPES, 100 IU/ml penicillin, 100 μg/ml streptomycin, 500 μg/ml geneticin and 240 μg/ml hygromycin B. The cells were subcultured twice weekly with 0.25% trypsin and 1 mM EDTA. The subculture ratio was 1:5-1:20. The growth medium was changed every 2 or 3 days. All cell culture reagents were from Gibco. The day before the experiment the cells were plated into black-walled, clear bottom 96-well plates at a density of 30,000-45,000 cells/well.
(§2) The growth medium was removed and the cells were incubated with the test compounds and the FLIPR Calcium 3 Assay reagent (Molecular Devices, CA, USA) for 1 h at 37° C. in dark. The test compounds (concentrations in cells 100 pM-10 μM) were dissolved in Probenecid-Ringer consisting of 150 mM NaCl, 3 mM KCl, 1.2 mM MgCl2, 1 mM CaCl2, 5 mM glucose, 20 mM HEPES and 2.5 mM probenecid (pH 7.4 adjusted with 1.0 M NaOH). The osmolarity was adjusted to 322 milliosmoles with Osmostat® OM-6020 osmometer (DIC Kyoto Daiichi Kagagu Co. Ltd, Japan). […] All experiments were performed at 37° C. The test compounds dissolved in Probenecid-Ringer were applied by FLEX station at 17 s time point. […] In order to determine antagonism, the cells were stimulated either with 100 nM adrenaline or 200 nM noradrenaline and the test compounds were added to the cells at least 5 min before the experiment. Typically, there were four replicates at each concentration and seven different dose levels. For example, if the number of plates from which results were obtained was three, 84 (4*7*3) wells were thus measured to construct dose-response relationship. The samples were excited at 485 nm and emission was detected at 525 nm with a 515 nm cut-off filter. Reading time was 60 s per well and the photomultiplier sensitivity value was set to 15. The minimum fluorescence value subtracted from the maximum value for each well was used in the calculations. SOFTmax PRO version 3.2 software was used for analyzing the results. Fitting of the antagonist dose-response results was performed with the free Hill equation and the IC50 values were fitted with Michaelis-Menten equation in Sigma Plot 8.0.

human alpha2A receptors = biological target: T2, human alpha2A receptors (Homo sapiens, UniProt P08913); assay: Determination of alpha2A antagonistic activity in vitro (intracellular calcium, FLIPR Calcium 3 Assay, FLEXstation); assay type: cell-based; settings: CHO cells stably transfected with human alpha2A receptor and Gα16; stimulated with 100 nM adrenaline or 200 nM noradrenaline
T2 construct: host or cells: CHO cells, cotransfected with expression vector pCEP-Galpha16
T2 sequence (P08913 1-465): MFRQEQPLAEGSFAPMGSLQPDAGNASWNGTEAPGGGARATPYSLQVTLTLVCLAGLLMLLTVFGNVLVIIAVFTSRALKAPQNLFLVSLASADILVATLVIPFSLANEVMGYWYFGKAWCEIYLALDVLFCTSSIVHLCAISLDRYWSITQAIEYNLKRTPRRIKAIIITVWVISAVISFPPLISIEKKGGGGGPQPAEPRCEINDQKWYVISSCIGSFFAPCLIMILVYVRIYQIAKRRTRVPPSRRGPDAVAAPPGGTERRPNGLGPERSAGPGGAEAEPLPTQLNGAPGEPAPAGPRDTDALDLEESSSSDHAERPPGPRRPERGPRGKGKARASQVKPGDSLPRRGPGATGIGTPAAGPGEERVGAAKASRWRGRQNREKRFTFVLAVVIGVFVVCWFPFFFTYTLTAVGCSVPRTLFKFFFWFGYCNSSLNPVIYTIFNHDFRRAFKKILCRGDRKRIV
Method: as §1, §2

| SMILES | IC50 (human alpha2C receptors) | IC50 (human alpha2A receptors) |
| --- | --- | --- |
| Fc1ccc(C2CCCN(C[C@H]3COc4ccccc4O3)C2)cc1 (stereo in doubt) [Example 18, (R*)-1-[(S)-1-(2,3-Dihydrobenzo[1,4]dioxin-2-yl)methyl]-3-(4-fluorophenyl)piperidine] | 0.0695 µM | > 10 µM |
| c1ccc(C2CCCN(CC3COc4ccccc4O3)C2)cc1 (stereo not drawn) [Example 2, 1-(2,3-Dihydrobenzo[1,4]dioxin-2-ylmethyl)-3-phenylpiperidine] | 0.0114 µM | 3.78 µM |
| Oc1ccccc1C1CCCN(CC2COc3ccccc3O2)C1 (stereo not drawn) [Example 12, 2-[1-(2,3-Dihydrobenzo[1,4]dioxin-2-ylmethyl)piperidin-3-yl]phenol] | 0.0196 µM | 0.374 µM |
| COC(C)(C)C1(C)CCCN(CC2COc3ccccc3O2)C1 (stereo not drawn) [Example 58, 1-(2,3-Dihydrobenzo[1,4]dioxin-2-ylmethyl)-3-(1-methoxy-1-methylethyl)-3-methylpiperidine] | 0.0095 µM | 0.776 µM |
| CC1(COS(C)(=O)=O)CCCN(CC2COc3ccccc3O2)C1 (stereo not drawn) [Example 61, Methanesulfonic acid 1-(2,3-dihydrobenzo[1,4]dioxin-2-ylmethyl)-3-methylpiperidin-3-ylmethyl ester] | 0.0024 µM | 2.87 µM |
| CCC1(COC)CCCN(CC2COc3ccccc3O2)C1 (stereo not drawn) [Example 63, 1-(2,3-Dihydrobenzo[1,4]dioxin-2-ylmethyl)-3-ethyl-3-methoxymethylpiperidine] | 0.0008 µM | 2.73 µM |
| C=CCOCC1(C)CCCN(CC2COc3ccccc3O2)C1 (stereo not drawn) [Example 69, 3-Allyloxymethyl-1-(2,3-dihydrobenzo[1,4]dioxin-2-ylmethyl)-3-methyl-piperidine] | 0.0017 µM | 1.29 µM |
| C=CCC1(CO)CCCN(CC2COc3ccccc3O2)C1 (stereo not drawn) [Example 71, [3-Allyl-1-(2,3-dihydrobenzo[1,4]dioxin-2-ylmethyl)piperidin-3-yl]methanol] | 0.0011 µM | 1.15 µM |
| C[C@]1(COCCO)CCCN(C[C@H]2COc3ccccc3O2)C1 [Example 89, 2-{(S)-1-[(S)-1-(2,3-Dihydrobenzo[1,4]dioxin-2-yl)methyl]-3-methylpiperidin-3-ylmethoxy}-ethanol D-tartrate] | 0.0006 µM | 2.14 µM |

Results, then the compound that gave them:

| IC50 (human alpha2C receptors) | IC50 (human alpha2A receptors) | SMILES |
| --- | --- | --- |
| 0.0054 µM | 4.36 µM | OCc1cccc(C2CCCN(C[C@H]3COc4ccccc4O3)C2)c1 (stereo in doubt) [Example 29, (3-{(R*)-1-[(S)-1-(2,3-Dihydrobenzo[1,4]dioxin-2-yl)methyl]piperidin-3-yl}phenyl)methanol] |
| 0.0074 µM | 1.47 µM | c1ccc2c(c1)OCC(CN1CCC3CCCCC3C1)O2 (stereo not drawn) [Example 48, 2-(2,3-Dihydrobenzo[1,4]dioxin-2-ylmethyl)decahydroisoquinoline] |
| 0.0009 µM | 0.635 µM | C=CCC1(COC)CCCN(CC2COc3ccccc3O2)C1 (stereo not drawn) [Example 72, 3-Allyl-1-(2,3-dihydrobenzo[1,4]dioxin-2-ylmethyl)-3-methoxymethylpiperidine] |
| 0.0074 µM | 0.346 µM | CC1(COCC(F)(F)F)CCCN(CC2COc3ccccc3O2)C1 (stereo not drawn) [Example 74, 1-(2,3-Dihydrobenzo[1,4]dioxin-2-ylmethyl)-3-methyl-3-(2,2,2-trifluoroethoxymethyl)-piperidine] |
| 0.0107 µM | 8.42 µM | C[C@]1(C(=O)O)CCCN(C[C@H]2COc3ccccc3O2)C1 [Example 86, Lithium (S)-1-[(S)-1-(2,3-dihydrobenzo[1,4]dioxin-2-yl)methyl]-3-methyl-piperidine-3-carboxylate] |
| 0.0046 µM | 5.44 µM | C[C@]1(COCC(=O)O)CCCN(C[C@H]2COc3ccccc3O2)C1 [Example 96, Sodium {(S)-1-[(S)-1-(2,3-dihydrobenzo[1,4]dioxin-2-yl)methyl]-3-methylpiperidin-3-yl-methoxy}acetate] |
